SMILES strings stand for the structures. Bounds are passed on as bounds.

The target in the experiment is T1, hITK enzyme (FLAG-tagged full-length hITK) (Homo sapiens, UniProt Q08881).
T1 construct: strongly expressing FLAG-tagged full-length hITK in Sf9 cells; FLAG; made in house; host or cells: Sf9 insect cells (ITK); Escherichia coli (GST-SLP76 substrate)
T1 sequence (Q08881 1-620): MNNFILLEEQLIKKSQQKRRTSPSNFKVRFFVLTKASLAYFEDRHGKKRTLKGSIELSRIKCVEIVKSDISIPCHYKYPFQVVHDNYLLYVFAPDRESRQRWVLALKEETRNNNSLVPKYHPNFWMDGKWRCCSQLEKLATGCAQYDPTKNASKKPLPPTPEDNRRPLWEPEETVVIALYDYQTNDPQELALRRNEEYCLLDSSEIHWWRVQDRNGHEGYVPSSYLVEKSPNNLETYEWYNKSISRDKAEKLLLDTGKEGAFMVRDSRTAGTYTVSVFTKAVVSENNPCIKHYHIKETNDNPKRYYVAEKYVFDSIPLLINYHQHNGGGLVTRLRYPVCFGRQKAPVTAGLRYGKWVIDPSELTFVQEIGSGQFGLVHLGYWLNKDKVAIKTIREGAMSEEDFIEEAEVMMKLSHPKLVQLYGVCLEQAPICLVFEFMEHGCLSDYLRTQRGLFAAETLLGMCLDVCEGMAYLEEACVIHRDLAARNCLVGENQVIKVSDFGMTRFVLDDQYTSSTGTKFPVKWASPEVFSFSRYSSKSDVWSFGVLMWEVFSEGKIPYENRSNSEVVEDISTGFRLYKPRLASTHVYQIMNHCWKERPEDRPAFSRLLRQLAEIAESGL
The experiment is described as follows: ITK inhibitory activity (HTRF kinase assay, biotinylated GST-SLP76 substrate). Conditions: IC50 calculated from the 2 test compound concentrations sandwiching 50% ITK inhibitory rate. It counts as biochemical. The procedure, abridged: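 Sf9-expressed hITK (50 ng/mL enzyme solution) reacted 10 min at RT in MOPS pH 7.0, 10 mmol/L MgCl2, 1 mmol/L DTT with E. coli SLP76 aa95–175 substrate; substrate solution held 100 µmol/L ATP (6 µmol/L for selected compounds). HTRF 665/620 ratio, blank-corrected; IC50 interpolated between two concentrations bracketing 50% inhibition.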
Broadly, the IC50 is the concentration that gives 50% inhibition. `CN(C(=O)NCc1ccccc1)c1ccc2cc(-c3n[nH]c4c3CCC(C)(C)C4)[nH]c2c1` [Example 51]: the IC50 is 26 nM.
As for `CC1CCN(c2ccc3cc(-c4n[nH]c5c4CCC(C)(C)C5)[nH]c3c2)C1=O` (stereo not shown) [Example 229], the IC50 is 38 nM.
Under `CO[C@H]1CC[C@@H](C(=O)N(C)c2ccc3cc(-c4n[nH]c5c4CCC(C)(C)C5)[nH]c3c2)CC1` [Example 85] stands 4 nM; under `C[C@H](C(=O)N(CCO)c1ccc2cc(-c3n[nH]c4c3CCC(C)(C)C4)[nH]c2c1)N1CCOCC1` [Example 252], 11 nM; under `CN(C(=O)C(C)(C)COCc1ccccc1)c1ccc2cc(-c3n[nH]c4c3CCC(C)(C)C4)[nH]c2c1` [Example 75], 34 nM.
Turning to `COCCN(C(=O)CN1C[C@H](C)OCC1=O)c1ccc2cc(-c3n[nH]c4c3CCC(C)(C)C4)[nH]c2c1` [Example 280], the IC50 was 2 nM.
With `CNCC(=O)N(C)c1ccc2cc(-c3n[nH]c4c3CCC(C)(C)C4)[nH]c2c1` [Example 126] the figure was 8 nM; with `CCC(=O)N(C)c1ccc2cc(-c3n[nH]c4c3CC(OC)CC4)[nH]c2c1` (stereo not shown) [Example 368], 131 nM.
Take `CN(C(=O)Cn1ccccc1=O)c1ccc2cc(-c3n[nH]c4c3CCC(C)(C)C4)[nH]c2c1` [Example 156]: the IC50 was below 1 nM.
Consider `COCC(OC)C(=O)N(C)c1ccc2cc(-c3n[nH]c4c3CCC(C)(C)C4)[nH]c2c1` (stereo not shown) [Example 47], for which the IC50 was 8 nM.
With `CN(C)CCN(C(=O)CC1CCOCC1)c1ccc2cc(-c3n[nH]c4c3CCC(C)(C)C4)[nH]c2c1` [Example 221] the figure was 3 nM.
Consider `CN(C(=O)CN1CC[C@@H](O)CC1=O)c1ccc2cc(-c3n[nH]c4c3CCC(C)(C)C4)[nH]c2c1` [Example 170], for which the IC50 is below 1 nM.
For the compound `CN(C(=O)CO)c1ccc2[nH]c(-c3n[nH]c4c3CCC(C)(C)C4)cc2c1` [Example 343], the IC50 was 135 nM.
Take `CN(C(=O)c1ccccc1)c1ccc2cc(-c3n[nH]c4c3CC(O)CC4)[nH]c2c1` (stereo not shown) [Example 367]: the IC50 was 75 nM.
Under `CC1(C)CCc2c(-c3cc4ccc(N(CCO)C(=O)CN5CCCCC5=O)cc4[nH]3)n[nH]c2C1` [Example 253] stands 2 nM; under `CC1(C)CCc2c(-c3cc4cc(C(=O)NCC(=O)O)ccc4[nH]3)n[nH]c2C1` [Example 306], 27 nM.
As to `CCN(C(=O)CN1C[C@@H](C)OCC1=O)c1ccc2cc(-c3n[nH]c4c3CCC(C)(C)C4)[nH]c2c1` [Example 282], the IC50 was 2 nM.
With `CN(C(=O)CN1CCCCC1=O)c1ccc2cc(-c3n[nH]c4c3CCC(C)(CO)C4)[nH]c2c1` (stereo not shown) [Example 8, N-[2-(6-hydroxymethyl-6-methyl-4,5,6,7-tetrahydro-1H-indazol-3-yl)-1H-indol-6-yl]-N-methyl-2-(2-oxopiperidin-1-yl)acetamide] the figure was 3 nM; with `COCC(C)N(C)C(=O)c1ccc2cc(-c3n[nH]c4c3CCC(C)(C)C4)[nH]c2c1` (stereo not shown) [Example 22], 40 nM; with `CN(C(=O)[C@H](O)C1CCCCC1)c1ccc2cc(-c3n[nH]c4c3CCC(C)(C)C4)[nH]c2c1` [Example 77], 6 nM.
With `CN(C(=O)C(O)COC1CCCC1)c1ccc2cc(-c3n[nH]c4c3CCC(C)(C)C4)[nH]c2c1` (stereo not shown) [Example 131], the IC50 is 25 nM.
With `CC(=O)N(C)c1ccc2cc(-c3n[nH]c4c3CCC(C)(C)C4)[nH]c2c1` [Example 1, N-[2-(6,6-dimethyl-4,5,6,7-tetrahydro-1H-indazol-3-yl)-1H-indol-6-yl]-N-methylacetamide] the figure was 7 nM; with `COC1CCc2[nH]nc(-c3cc4ccc(N(C)C(=O)c5ccccc5)cc4[nH]3)c2C1` (stereo not shown) [Example 370], 204 nM; with `COC1CCN(CC(=O)N(C)c2ccc3cc(-c4n[nH]c5c4CCC(C)(C)C5)[nH]c3c2)CC1` [Example 81], 8 nM.
Under `CC1COCC(=O)N1CC(=O)N(C)c1ccc2cc(-c3n[nH]c4c3CCC(C)(C)C4)[nH]c2c1` (stereo not shown) [Example 130] stands 2 nM; under `COC(=O)N(C)CC(=O)N(C)c1ccc2cc(-c3n[nH]c4c3CCC(C)(C)C4)[nH]c2c1` [Example 198], 1 nM; under `CN(C(=O)CC1CCCC1)c1ccc2cc(-c3n[nH]c4c3CCC(C)(C)C4)[nH]c2c1` [Example 92], 10 nM.
Under `CC1(C)CCc2c(-c3cc4ccc(N(CCO)C(=O)[C@H]5CC[C@@H](O)CC5)cc4[nH]3)n[nH]c2C1` [Example 248] stands 2 nM; under `CC1(C)CCc2c(-c3cc4ccc(N5CCC(C6CCCCC6)C5=O)cc4[nH]3)n[nH]c2C1` (stereo not shown) [Example 250], 139 nM.
`COC1CCCC(C(=O)N(C)c2ccc3cc(-c4n[nH]c5c4CCC(C)(C)C5)[nH]c3c2)C1` (stereo not shown) [Example 99]: the concentration for half-maximal inhibition (IC50) is 26 nM.
As for `CN(C(=O)C(O)CO)c1ccc2cc(-c3n[nH]c4c3CCC(C)(C)C4)[nH]c2c1` (stereo not shown) [Example 43], the IC50 was 6 nM.
For `C[C@H]1COCC(=O)N1CC(=O)N(C)c1ccc2cc(-c3n[nH]c4c3CCC(C)(C)C4)[nH]c2c1` [Example 172], the IC50 was 2 nM.
Regarding `COCC(=O)N(C)c1ccc2cc(-c3n[nH]c4c3CC(O)CC4)[nH]c2c1` (stereo not shown) [Example 366], the IC50 was 82 nM.
With `COCCN(C(=O)CC1CCC(OC)CC1)c1ccc2cc(-c3n[nH]c4c3CCC(C)(C)C4)[nH]c2c1` (stereo not shown) [Example 274] the figure was 9 nM; with `COCCN(C(=O)CN1C(=O)COC[C@H]1C)c1ccc2cc(-c3n[nH]c4c3CCC(C)(C)C4)[nH]c2c1` [Example 262], 3 nM; with `CO[C@H]1CC[C@H](C(=O)N(CCO)c2ccc3cc(-c4n[nH]c5c4CCC(C)(C)C5)[nH]c3c2)CC1` [Example 233], 10 nM.
As to `CN(C(=O)c1ccc2[nH]c(-c3n[nH]c4c3CCC(C)(C)C4)cc2c1)c1ccccc1` [Example 295], the IC50 was 138 nM.
Turning to `CC1(C)CCc2c(-c3cc4cc(C(=O)N5CCN(C(=O)OC(C)(C)C)CC5)ccc4[nH]3)n[nH]c2C1` [Example 336], the IC50 is 78 nM.
As to `CC(=O)N1CCC(C(=O)N(C)c2ccc3cc(-c4n[nH]c5c4CCC(C)(C)C5)[nH]c3c2)CC1` [Example 64], the IC50 was 6 nM.
Take `CC1(C)CCc2c(-c3cc4ccc(N5CCOC5=O)cc4[nH]3)n[nH]c2C1` [Example 208]: the IC50 was 29 nM.
As for `CC1CN(CC(=O)N(C)c2ccc3cc(-c4n[nH]c5c4CCC(C)(C)C5)[nH]c3c2)CC(C)O1` (stereo not shown) [Example 118], the IC50 is 3 nM.
Under `CN(CCO)C(=O)c1ccc2[nH]c(-c3n[nH]c4c3CCC(C)(C)C4)cc2c1` [Example 304] stands 27 nM; under `CC1(C)CCc2c(-c3cc4cc(C(=O)NCc5ccoc5)ccc4[nH]3)n[nH]c2C1` [Example 318], 45 nM.
Under `CN1CCC(C(=O)N(C)c2ccc3cc(-c4n[nH]c5c4CCC(C)(C)C5)[nH]c3c2)CC1` [Example 65] stands 55 nM.
Under `CN(C(=O)c1ccccc1)c1ccc2cc(-c3n[nH]c4c3CCCC4)[nH]c2c1` [Example 350] stands 62 nM; under `CCN(C(=O)CC1CCOCC1)c1ccc2cc(-c3n[nH]c4c3CCC(C)(C)C4)[nH]c2c1` [Example 268], 5 nM; under `CC1(C)CCc2c(-c3cc4cc(C(=O)N5CCc6[nH]cnc6C5)ccc4[nH]3)n[nH]c2C1` [Example 334], 31 nM.
In the case of `CN(CC(=O)O)C(=O)c1ccc2[nH]c(-c3n[nH]c4c3CCC(C)(C)C4)cc2c1` [Example 312], the IC50 was 27 nM.
On to `CC(C(=O)N(C)c1ccc2cc(-c3n[nH]c4c3CCC(C)(C)C4)[nH]c2c1)N1CCC[C@H](O)C1` (stereo partly shown) [Example 111], for which the IC50 was 9 nM.
For `CN(C(=O)CN1CCOCC1=O)c1ccc2cc(-c3n[nH]c4c3CCC(C)(C)C4)[nH]c2c1` [Example 6, N-[2-(6,6-dimethyl-4,5,6,7-tetrahydro-1H-indazol-3-yl)-1H-indol-6-yl]-N-methyl-2-(3-oxomorpholin-4-yl)acetamide], the IC50 was 2 nM.
Turning to `CC(C(=O)N(C)c1ccc2cc(-c3n[nH]c4c3CCC(C)(C)C4)[nH]c2c1)N(CCO)CC(=O)O` (stereo not shown) [Example 379], the IC50 is 4 nM.
With `COCCN(C(=O)CN1C(=O)COC[C@@H]1C)c1ccc2cc(-c3n[nH]c4c3CCC(C)(C)C4)[nH]c2c1` [Example 272] the figure was 3 nM.
With `CCC(=O)N(C)c1ccc2cc(-c3n[nH]c4c3CCC(C)(C)C4)[nH]c2c1` [Example 32] the figure was 4 nM.
With `COCCN(C(=O)[C@H](C)N1CCOCC1)c1ccc2cc(-c3n[nH]c4c3CCC(C)(C)C4)[nH]c2c1` [Example 276], the IC50 is 4 nM.
With `COC1CCCC(C(=O)N(C)c2ccc3cc(-c4n[nH]c5c4CCC(C)(C)C5)[nH]c3c2)C1` (stereo not shown) [Example 100] the figure was 5 nM.

The values above are taken from patent US8299070B2, “Indole compounds and pharmaceutical use thereof” (Japan Tobacco Inc., priority 2009, dated 2012).
